Data reported in patent US11274132B2, “Combined preparations of PKM2 modulators and HMGB1” (Ruprecht-Karls-Universität Heidelberg, priority 2015, dated 2022).

System: glucose flux (glycolysis)
Test: Glycolysis: conversion of 5-3H-Glucose to 3H2O
Format: cell-based, human
Conditions: HMGB1 80 nM, 24 h
Protocol: Lactate derived from the metabolism of ^13C6-D-glucose or ^13C5-glutamine was determined by comparing the CH3 group intensities of labeled and non-labeled lactate in NMR. Mitochondrial respiration was measured using an Oroboros 1 oxygraph system. Glycolysis was measured by monitoring the conversion of 5-^3H-Glucose to ^3H2O. Incorporation of ^14C into RNA ribose from U-^14C-labelled glucose was taken as glucose utilization in the pentose phosphate shunt. Enzymatic activities were determined in subcellular fractions as previously described^24.

## HMGB1: recombinant human HMGB1 protein (Sigma-Aldrich); High Mobility Group Box 1 polypeptide, human, SEQ ID NO: 4
  glucose flux (5-3H-glucose turn-over): reduced at the enolase reaction step
